According to ChEMBL document CHEMBL1150018, “New reagents for controlled release of nitric oxide. Structure-stability relationships” (Bioorg Med Chem Lett, 1996):

Key:
Type in all cases: ADME
[1] = Half life was determined; details: rat
[2] = Rate of decomposition in aqueous solution (pH 8.0, 30 degree Celsius) at 580 min; details: buffer, pH 8, 580 min
[3] = Kinetic constant log k was determined
[4] = Rate of decomposition in aqueous solution (pH 8.0, 30 degree Celsius) at 270 min; details: buffer, pH 8, 4.5 h
[5] = Rate of decomposition in aqueous solution (pH 8.0, 30 degree Celsius) at 1800 min; details: buffer, pH 8, 30 h
[6] = Rate of decomposition in aqueous solution (pH 8.0, 30 degree Celsius) at 150 min; details: buffer, pH 8, 2.5 h
[7] = Rate of decomposition in aqueous solution (pH 8.0, 30 degree Celsius) at 84 min; details: buffer, pH 8, 1.4 h
[8] = Rate of decomposition in aqueous solution (pH 8.0, 30 degree Celsius) at 46 min; details: buffer, pH 8, 46 min
[9] = Rate of decomposition in aqueous solution (pH 8.0, 30 degree Celsius) at 2.6 min; details: buffer, pH 8, 156 s
[10] = Rate of decomposition in aqueous solution (pH 8.0, 30 degree Celsius) at 1500 min; details: buffer, pH 8, 25 h
[11] = Rate of decomposition in aqueous solution (pH 8.0, 30 degree Celsius) at 2900 min; details: buffer, pH 8, 2900 min
[12] = Rate of decomposition in aqueous solution (pH 8.0, 30 degree Celsius) at 86 min; details: buffer, pH 8, 86 min
[13] = Rate of decomposition in aqueous solution (pH 8.0, 30 degree Celsius) at 107 min; details: buffer, pH 8, 107 min
[14] = Rate of decomposition in aqueous solution (pH 8.0, 30 degree Celsius) at 35 min; details: buffer, pH 8, 35 min
[15] = Rate of decomposition in aqueous solution(pH 8.0, 30 degree Celsius)at 350 min; details: buffer, pH 8, 350 min
[16] = Rate of decomposition in aqueous solution (pH 8.0, 30 degree Celsius) at 190 min; details: buffer, pH 8, 190 min
[17] = Rate of decomposition in aqueous solution (pH 8.0, 30 degree Celsius) at 87 min; details: buffer, pH 8, 1.45 h
[18] = Rate of decomposition in aqueous solution (pH 8.0, 30 degree Celsius) at 690 min; details: buffer, pH 8, 11.5 h
[19] = Rate of decomposition in aqueous solution (pH 8.0, 30 degree Centigrade) at 5.3 min; details: buffer, pH 8, 318 s
[20] = Rate of decomposition in aqueous solution (pH 8.0, 30 degree Celsius) at 350 min; details: buffer, pH 8, 350 min

Row | half-life [1] [h] | Log k [3] | Compound | other results
1 | 9.67 | -2.921 | CC(C)/C(=C\C(CNC(=O)c1cccnc1)=N\O)C(C)[N+](=O)[O-] (stereo unspecified) | k [2]: 0.0012 min⁻¹
2 | 4.5 | -2.585 | CC/C(=C\C(CNC(C)=O)=N\O)C(CC)[N+](=O)[O-] (stereo unspecified) | k [4]: 0.0026 min⁻¹
3 | 30 | -3.42 | CC/C(=C\C(CNC(=O)c1cccnc1)=N\O)C(C(C)C)[N+](=O)[O-] (stereo unspecified) | k [5]: 0.00038 min⁻¹
4 | 2.5 | -2.347 | CC/C(=C\C(=N\O)C(N)=O)C(CC)[N+](=O)[O-] (stereo unspecified) | k [6]: 0.0045 min⁻¹
5 | 1.4 | – | O=C(NCC(/C=C1\CCCCC1[N+](=O)[O-])=N\O)c1cccnc1 (stereo unspecified) | k [7]: 0.0083 min⁻¹
6 | 0.767 | -1.824 | CC/C(=C\C(=N\O)C(N)=O)C(C)[N+](=O)[O-] (stereo unspecified) | k [8]: 0.00025 s⁻¹
7 | 0.0433 | 0.569 | COCC(/C(C)=C/C(=N/O)C(N)=O)[N+](=O)[O-] (stereo unspecified) | k [9]: 0.27 min⁻¹
8 | 25 | -3.337 | CC/C(=C\C(CNC(C)=O)=N\O)C(C(C)C)[N+](=O)[O-] (stereo unspecified) | k [10]: 0.00046 min⁻¹
9 | 48.3 | -3.62 | CC/C(=C\C(=N\O)C(N)=O)C([N+](=O)[O-])C(C)(C)C (stereo unspecified) | k [11]: 0.00024 min⁻¹
10 | 1.43 | -2.092 | CC/C(=C\C(CNC(C)=O)=N\O)C(C)[N+](=O)[O-] (stereo unspecified) | k [12]: 0.0081 min⁻¹
11 | 1.78 | -2.187 | CC/C(=C\C(CNC(=O)c1cccnc1)=N\O)C(C)[N+](=O)[O-] (stereo unspecified) | k [13]: 0.0065 min⁻¹
12 | 0.583 | – | NC(=O)C(/C=C1\CCCCC1[N+](=O)[O-])=N\O (stereo unspecified) | k [14]: 0.02 min⁻¹
13 | 5.83 | -2.699 | CCC(/C(C)=C/C(CNC(=O)c1cccnc1)=N/O)[N+](=O)[O-] (stereo unspecified) | k [15]: 0.002 min⁻¹
14 | 3.17 | -2.432 | CC(C)/C(=C\C(=N\O)C(N)=O)C(C)[N+](=O)[O-] (stereo unspecified) | k [16]: 0.0037 min⁻¹
15 | 1.45 | – | CC(=O)NCC(/C=C1\CCCCC1[N+](=O)[O-])=N\O (stereo unspecified) | k [17]: 0.008 min⁻¹
16 | 11.5 | -3 | CC/C(=C\C(=N\O)C(N)=O)C(C(C)C)[N+](=O)[O-] (stereo unspecified) | k [18]: 0.001 min⁻¹
17 | 0.0883 | -0.886 | COCC(/C(C)=C/C(CNC(=O)c1cccnc1)=N/O)[N+](=O)[O-] (stereo unspecified) | k [19]: 0.13 min⁻¹
18 | 5.83 | -2.699 | CC/C(=C\C(CNC(=O)c1cccnc1)=N\O)C(CC)[N+](=O)[O-] (stereo unspecified) | k [20]: 0.002 min⁻¹
